Results from BindingDB's records for doi:10.7270/Q2Z31X4P (The Scripps Research Institute Molecular Screening Center, 2010).

Target: T1, Caspase-3 (Homo sapiens, UniProt P42574)
T1 sequence (P42574 whole entry): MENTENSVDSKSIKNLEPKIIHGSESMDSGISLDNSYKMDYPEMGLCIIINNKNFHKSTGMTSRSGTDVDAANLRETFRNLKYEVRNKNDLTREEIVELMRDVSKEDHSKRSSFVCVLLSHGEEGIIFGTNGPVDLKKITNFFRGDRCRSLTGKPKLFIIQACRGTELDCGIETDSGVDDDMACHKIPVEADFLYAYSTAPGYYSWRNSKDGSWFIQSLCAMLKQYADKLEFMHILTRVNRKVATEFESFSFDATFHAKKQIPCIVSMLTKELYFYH
Assay: procaspase-3 activators, dose response, biochemical, absorbance (AID 489014)

SMILES | EC50 [µM]
O=C(CC1=NC2(CCCC2)Cc2ccccc21)C(=O)NN=Cc1ccccc1O [SMR000219463] | > 85.3
O=c1c2c(-c3ccccc3)[nH]n(-c3ccccc3)c-2c(O)n1-c1ccccc1 [SMR000269383] | > 85.3
